Source: patent US4748161A, “Triterpenyl esters of organic acids and hypolipidemic agents composed of them” (Amano Pharmaceutical Co., Ltd., priority 1984, dated 1988)
Where “and” joins values, the source holds several entries; their conditions need not be identical. Equal entries are not always repeated.

System: serum lipids and serum lipid hydroperoxide
Test: Pharmacological test method A for anti-hyperlipidemic activity (serum lipids, 2 weeks feeding)
Format: in vivo, male Wistar strain rats
Conditions: for AI [(TC - HDL-C)/(HDL-C)] / HDL-C in serum / LPO in serum / PL in serum / TC in serum / TG in serum: 1% in hyperlipidemic diet, 2 weeks
Method: Male Wistar strain rats (100±lg, each 10 rats were formed into a group) were used as test animals. Diet for the control group was prepared by thorough mixing of 20% casein, 62.5% glucose, 10% hydrogenated coconut oil, 2% agar powder, 4% vitamin-containing salt mixture, 1% cholesterol, and 0.5% cholic acid (this composition is described by Fukushima et al, in "Yakugaku Zassi", 89, No. 6, pp. 857-862 (1962)). Diet for the test groups was prepared by good mixing of 1% each of cycloartenol, 24-methylenecycloartanol, and cyclobranol with the control group's diet. Each rat was kept in a cage at a constant temperature of 23±1° C. and a constant R.H. of 55±5% for 2 weeks, during which 10 g/day of the prescribed was given. Finally the rats were fasted from food except water for 16 hours (from 4 p.m. of the 14th test day to 8 a.m. of the 15th test day), and under anesthesia with pentbarbital sodium (tradename: Nembutal), blood was taken from each rat through the descending abdominal arota. Then, TC, HDL-C, TG, PL, and LPO in the serum were measured in the manner that will be described below.
A TC kit-K (supplied by Nippon Shoji Kaisha, Ltd.) was used. The principle of this determination is as follows: The ester of cholesterol in the serum is hydrolyzed with cholesterol-ester hydrolase into free cholesterol and fatty acids. All the free cholesterol is oxidized with cholesterol oxydase to form Δ^4 -cholestenone and hydrogen peroxide. Phenol and 4-aminoantipyrin are oxidatively condensed together by the formed hydrogen peroxide and peroxydase. The produced red quinone coloring matter is measured by colorimetry for absorbance at 500 nm using a spectrophotometer, thereby determining the TC:
The color-developing liquid (3.0 ml) is well mixed with the sample serum (0.02 ml). The mixture once heated at 37° C. for 15 minutes, is measured for absorbance at 500 nm with a spectrophotometer. The found absorbance is denoted by EA. On the other hand, the color-developing liquid (3.0 ml) is well mixed with the standard solution. The mixture is treated and measured for absorbance at 500 nm in the same manner as the above. This found absorbance is denoted by ES. Both EA and ES are determined with reference to the value of the blank test conducted using the color-developing liquid (3.0 ml) alone. [formula]
An HDL-C kit-N (supplied by Nippon Shoji Kaisha, Ltd.) was used. […] (VLDL) and lo density lipoprotein (LDL) in the serum is precipitated by the action of heparin. The precipitate is separated by centrifugation. High density lipoprotein (HDL) is dissolved in the separated supernatant. Esters of cholesterol in this fraction is hydrolyzed with cholesterol-ester hydrolase into free cholesterol and fatty acids. All the free cholesterol is oxidized with cholesterol oxydase to form Δ^4 -cholestenone and hydrogen peroxide. Phenol and 4-aminoantipyrine are oxidatively condensed together by the formed hydrogen peroxide and peroxydase. The produced red quinone coloring matter is measured by colorimetry for absorbance at 500 nm using a spectrophotometer, thereby determining the HDL-C.
A PL kit-K (supplied by Nippon Shoji Kaisha, Ltd.) was used for the determination. Lecithin, sphingomyelin, and lysolecithin are decomposed by phospholipase D into choline and phosphatidic acid, N-acylsphingosyl phosphate, or lysophosphatidic acid, respectively. The resulting choline is quantitatively decomposed by choline oxydase into hydrogen peroxide and betaine. With this hydrogen peroxide, and aid of peroxydase, phenol and 4-aminoantipyrin are condensed into red quinone pigment, then the absorbance at 500 nm of which is measured with a spectrophotometer, thereby determining the PL.
Serum TG level was determined by means of a triglyceride test kit (supplied by Wako Pure Chemical Industries, Ltd.) in which acetylacetone is used for a reagent, in the following manner: Serum proteins are precipitated, when isopropyl alcohol and the sample serum are mixed. […]

Row | Molecule | AI [(TC - HDL-C)/(HDL-C)] | HDL-C in serum | LPO in serum | PL in serum | TC in serum | TG in serum | AI % of diff. (versus control group) [%] | AI Diff. (versus control group) | HDL-C % of diff. (versus control group) | HDL-C Diff. (versus control group) | LPO % of diff. (versus control group) | LPO Diff. (versus control group) [nmol/mL] | PL % of diff. (versus control group) | PL Diff. (versus control group) [mg/dL] | TC % of diff. (versus control group) | TC Diff. (versus control group) [mg/dL] | TG % of diff. (versus control group) | TG Diff. (versus control group) [mg/dL] | AI Diff. (Table 2, versus control group) [mg/dL]
1 | CC(C)=CCCC(C)C1CCC2(C)C3CCC4C(C)(C)C(OC(=O)C=Cc5ccc(N)cc5)CCC45CC35CCC12C (stereo not drawn) [Example 102, cycloartenyl ester of p-amino-cinnamic acid] | 3.262 | 48.1 mg/dL | 2.02 nmol/mL | 140.9 mg/dL | 205.0 mg/dL | 26.7 mg/dL | -58.4 | -4.578 | +30.4% | +11.2 mg/dl | -27.9% | -0.78 | -14.9% | -24.7 | -37.2% | -121.2 | -21.5% | -7.3 | 
2 | C=C(CCC(C)C1CCC2(C)C3CCC4C(C)(C)C(OC(=O)C=Cc5ccc(OC(C)=O)c(OCC)c5)CCC45CC35CCC12C)C(C)C (stereo not drawn) [Example 72, 24-methylenecycloartanyl-4-acetoxy-3-ethoxycinnamate] | 1.091 | 89.2 mg/dL | 2.07 nmol/mL | 160.3 mg/dL | 186.5 mg/dL | 41.8 mg/dL | -35.2 | -0.593 | +10.2% | +8.3 mg/dl | -10.4% | -0.24 | -10.8% | -19.4 | -14.1% | -30.6 | -2.4% | -1.0 | 
3 | COc1ccccc1C(=O)OC1CCC23CC24CCC2(C)C(C(C)CCC=C(C)C)CCC2(C)C4CCC3C1(C)C (stereo not drawn) [Example 13, cycloartenyl-o-methoxybenzoate] | 1.388 | 60.5 mg/dL | 1.94 nmol/mL | 122.8 mg/dL | 144.5 mg/dL | 26.2 mg/dL | -21.4 | -0.379 | +0.5% | +0.3 mg/dl | -23.3% | -0.59 | -10.2% | -13.9 | -13.3% | -22.1 | -3.7% | -1.0 | 
4 | CC(C)=CCCC(C)C1CCC2(C)C3CCC4C(C)(C)C(OC(=O)c5ccc(O)c(O)c5)CCC45CC35CCC12C (stereo not drawn) [Example 27, cycloartenyl-3,4-dihydroxybenzoate] | 0.955 | 95.2 mg/dL | 1.99 nmol/mL | 160.3 mg/dL | 186.1 mg/dL | 40.4 mg/dL | -43.3 | -0.729 | +17.7% | +14.3 mg/dl | -14.0% | -0.32 | -10.8% | -19.4 | -14.3% | -31.0 | -5.5% | -2.4 | 
5 | cycloartenyl-3,4-dihydroxycinnamate [Example 2] | 0.860 and 1.180 | 90.3 mg/dL and 89.2 mg/dL | 1.98 nmol/mL and 2.05 nmol/mL | 168.2 mg/dL and 170.2 mg/dL | 168.0 mg/dL and 194.5 mg/dL | 30.6 mg/dL and 41.3 mg/dL |  | -0.504 |  |  | -12.8% and -11.2% |  | -3.1% and -5.0% |  | -18.1% and -10.4% |  | -10.9% and -3.5% |  | -0.657
6 | CC(C)=CCCC(C)C1CCC2(C)C3CCC4C(C)(C)C(OC(=O)c5cccc(N)c5)CCC45CC35CCC12C (stereo not drawn) [Example 23, cycloartenyl-m-aminobenzoate] | 1.506 | 58.9 mg/dL | 2.06 nmol/mL | 133.1 mg/dL | 147.6 mg/dL | 20.2 mg/dL | -18.5 | -0.341 | +0.3% | +0.2 mg/dl | -12.0% | -0.28 | -10.3% | -15.3 | -11.7% | -19.5 | -18.5% | -4.6 | 
7 | CC(C)=CCCC(C)C1CCC2(C)C3CCC4C(C)(C)C(OC(=O)c5ccccc5O)CCC45CC35CCC12C (stereo not drawn) [Example 8, cycloartenyl-o-hydroxybenzoate] | 0.759 | 101.1 mg/dL | 2.01 nmol/mL | 148.8 mg/dL | 177.8 mg/dL | 41.3 mg/dL | -54.9 | -0.925 | +25.0% | +20.2 mg/dl | -13.0% | -0.30 | -17.2% | -30.9 | -18.1% | -39.3 | -3.5% | -1.5 | 
